Data from article PMC8750417, “Intracellular Amplifiers of Reactive Oxygen Species Affecting Mitochondria as Radiosensitizers” (Cancers, 2021).
“And” between values parts separate entries of the source, which are not always exact repeats. Equal entries are not always repeated. Where two headings read alike, the source gives them in different places.

Legend:
A2780 cells = assay: Mitochondrial ROS (MitoSOX, flow cytometry), A2780; assay type: cell-based, human
Protocol: Monitoring mitochondrial ROS (mROS)
A2780 cells were seeded in RPMI 1640 medium containing 5% FBS, 1% L-glutamine and 1% penicillin/streptomycin in a 96-well microtiter plate (total volume 0.1 mL) at a density of 250 cells/µL one day before the experiment. On the day of the experiment, the cells were washed with DPBS buffer and a fresh portion of RPMI 1640 medium containing 5% FBS, 1% L-glutamine and 1% penicillin/streptomycin (100 µL) was added followed by addition of compounds (1 μL of stock solutions in DMSO, final concentration of the prodrugs was 5, 10 μM and 30 μM) or carrier only (DMSO, 1 µL, final concentration 1 %, v/v) and incubation for 1 or 2 h in the dark chamber filled with CO 2 (5%) at 37 °C. After that, the cells were washed twice with DPBS buffer and the medium was replaced with HBSS (Hanks' Balanced Salt solution, 50 μL) containing MitoSOX (Red Mitochondrial Superoxide Indicator, Thermo-Fisher, Catalog number M36008, final concentration 5 µM obtained by adding 0.5 µ L of the 0.5 mM stock solution of MitoSOX in DMSO to the HBSS ) […]
(1 picture or pasted object on this page, not shown here) […]
and the cells were incubated in the dark chamber filled with CO2 (5%) at 37 °C for 20 min.
Next, the cells were detached from the culture dish using trypsin/EDTA (0.025%/0.01%, v/v, 50 µL). The cells were re-suspended in RPMI 1640 medium containing 5% FBS, 1% L-glutamine and 1% penicillin/streptomycin (100 µL). Finally, the fluorescence of live cells (λex = 488 nm, λem = 578 nm) in the suspensions was determined by using flow cytometry

FaDu cells = assay: Clonogenic assay (colony formation), FaDu; assay type: cell-based, human; conditions: for Relative clonogenic survival: 48 h exposure, untreated control = 1
Protocol: (§1) Optimization of concentration of prodrugs and controls / clonogenic assay The clonogenic survival assay is a classical approach to monitor radioresponse and drug- induced radiosensitization in cancer cells. We therefore initially determined whether the supposedly non -toxic drug concentrations defined for combinatorial treatment testing affect single cell colony formation capacity. For this pu rpose, exponentially growing SAS and FaDu cells were dissociated, single cell suspensions were prepared in standard DMEM and seeded in 6 -well plates at […]
(§2) defined low density (150-300 cells in 1 ml per well). After 8 h of incubation to allow cell adherence, 50% of the supernatant was exchanged by media containing the respective prodrugs at 2x concentration and exposed for 48 h. Treatment was then terminated by medium removal, and cells were allowed to grow for a period of ≥5-6 cell divisions estimated from the cell line-specific doubling times of the respective untreated controls (~7 days for SAS and ~10 days for FaDu cells). Control cells were always handled in parallel to the treated cells and thus exposed to the corresponding DMSO concentration(s). After the defined growth intervals, cells were fixed, stained and colonies of >50 cells were manually counted at low magnification to calculate plating efficiencies as the number of counted colonies relative to the number of seeded cells. Drug effect on clonogenic survival was then estimated by normalizing the colony formation of control cells to 1 (Table S9). […]

SAS cells = assay: Clonogenic assay (colony formation), SAS; assay type: cell-based, human; conditions: for Relative clonogenic survival: 48 h exposure, untreated control = 1
Protocol: as §1, §2

BL-2 cells = assay: Cell viability, MTT assay, BL-2; assay type: cell-based, human
Protocol: Determination of viability of cells in the presence of prodrugs and controls A2780 and BL-2 cells The medium was removed, and the cells were washed two times with DPBS, trypsinated, and resuspended in RPMI 1640 medium (A2780) supplemented with 5% FBS (for 24 h and 48 h assay) or 10% FBS (for 96 h assay) , 1% L-glutamine, and 1% penicillin/streptomycin.
A2780 cells: This suspension was spread in the wells of a 96 -well microtiter plate (25000 cells for A2780 per well per 100 μL) and left standing at 37 °C in the chamber filled with CO2 (5%) for overnight. Stock solutions of prodrugs of different concentra tions (1 μL, solvent dmso, final concentrations in wells were 2, 5, 10, 30, 50 μM) were added to the wells and incubated for specific periods of time. Four experiments were conducted for each concentration of the prodrug. Finally, 3-(4,5-dimethylthiazol-2-yl)-2,5-diphenyltetrazolium bromide (MTT, 20 μL of the solution prepared by dissolving MTT (5 mg) in DPBS buffer (1 mL)) was added to each well, incubated for 3 h, treated with sodium dodecyl sulfate (SDS) solution (90 μL, 10% solution in 0.01 M aqueous HC l), and incubated overnight. Afterward, the intensity of the absorbance at 590 nm was measured.
MTT is converted in live cells to blue dye with the absorbance maximum λ max at 590 nm.
The absorbance at 690 nm was taken as a baseline value. The baseline corrected absorbance at 590 nm (A(590 nm) − A(690 nm)) was applied to calculate the relative number of viable cells. IC50 values were determined by fitting the experimental data expressing the number of viable cells (%, Y-axis) versus drug concentration (μM, X-axis) with a line curve and the X-axis value corresponding to 50% viability was considered as IC50 value according to the line curve (Figure S50, Table S2).
BL-2 cells: The cells were centrifuged, the medium was removed, and the cells were washed two times with DPBS and re-suspended in RPMI 1640 medium containing 5% (48 h incubation) or 10% FBS (96 h incubation), 1% L-glutamine, and 1% penicillin/ streptomycin. This suspension was spread in the wells of a 96-well microtiter plate (50000 cells per well per 100 μL). Other steps were identical to those was described in determination of viability of adherent cells (given above) (Table S3).

human fibroblasts (HF) = assay: Cytotoxicity MTT assay, human fibroblasts; assay type: cell-based; conditions: read-out: 50% cell survival (EC50)
Protocol: Study of synergy of prodrugs with radiotherapy for SAS and FaDu cells
Optimization of concentration of prodrugs and controls / MTT assay
The MTT assay was also applied to assess the impact of various drugs (0.01-100 µM) on the viability of the two human head and neck squamous carcinoma cell (HNSCC) lines SAS and FaDu as well as retinal pigment epithelial ARPE-19 cells and human fibroblasts (HF). Cells were seeded into 96-well plates at concentrations of 4000 and 2000 cells per […]
h before exposure to the drugs. All drug dilutions were prepared from 20 mM stock solutions in DMSO. The final DMSO concentration was set to 0.5% in all sample s including control. After completion of the treatment, the wells were processed according to the routine MTT protocol as described above; the formazan absorbance was then measured on a Biotek Epoch Microplate Spectrophotometer at 590 nm and corrected for the background signal at 620 nm. N≥3 independent experiments were performed for each drug candidate, cell type and treatment interval. Cell survival was recorded as function of the drug concentration, and dose-response curves were fitted with the Boltzmann equation where appropriate. We calculated the half-maximal response (EC50) as well as the EC20 (80% survival) according to the line curve (see Tables S6-S8). EC20-values were used as a basis to select the compound-specific non-toxic drug concentrations for combination with radiotherapy.

| SMILES | mitochondrial ROS (mROS) vs non-treated cells (A2780 cells) | Relative clonogenic survival (FaDu cells; 10 µM) | growth of colonies reduced to (FaDu cells; 25 µM) [%] | Relative clonogenic survival (FaDu cells; 25 µM) | Relative clonogenic survival (SAS cells; 10 µM) | growth of colonies reduced to (SAS cells; 25 µM) [%] | Relative clonogenic survival (SAS cells; 25 µM) | IC50 (BL-2 cells; BL-2, 48 h incubation) [µM] | IC50 (BL-2 cells; BL-2, 96 h incubation) | EC50 (human fibroblasts (HF); 24h) [µM] | EC50 (human fibroblasts (HF); 48h) [µM] | Relative clonogenic survival (FaDu cells; 0.5 µM) | Relative clonogenic survival (FaDu cells; 1 µM) | Relative clonogenic survival (FaDu cells; 2.5 µM) | colony formation reduced to (FaDu cells; 10-fold lower dose than 25 µM) [%] | Relative clonogenic survival (SAS cells; 0.5 µM) | Relative clonogenic survival (SAS cells; 1 µM) | Relative clonogenic survival (SAS cells; 2.5 µM) | colony formation reduced to (SAS cells; 10-fold lower dose than 25 µM) [%] |
| --- | --- | --- | --- | --- | --- | --- | --- | --- | --- | --- | --- | --- | --- | --- | --- | --- | --- | --- | --- |
| CC1(C)OB(c2ccc(COC(=O)N(Cc3cn(Cc4ccc(Cn5cc(Cc6ccccc6)nn5)cc4)nn3)[c-]3cccc3)cc2)OC1(C)C.[Fe+2].c1cc[cH-]c1 [2c] | significantly increased | 0.86 ± 0.13 | 20 ± 8 | 0.20 ± 0.08 | 0.78 ± 0.13 | 70 ± 10 | 0.70 ± 0.10 | 40.1 ± 6.4 | 5.7 ± 2.7 µM | > 50 | > 50 | – | – | – | – | – | – | – | – |
| [Fe+2].c1cc[cH-]c1.c1cc[cH-]c1 [compound 6, ferrocene] | – | – | – | 0.99 ± 0.08 | – | – | 0.88 ± 0.10 | > 100 | > 100 µM | > 50 | > 50 | – | – | – | – | – | – | – | – |
| CC1(C)OB(c2ccc(COC(=O)N(Cc3cccc(CN4CCCCC4)c3)[c-]3cccc3)cc2)OC1(C)C.[Fe+2].c1cc[cH-]c1 [5b] | did not affect mROS | – | – | – | – | – | – | 5 ± 2 | 5 ± 3 µM | 35.5 ± 14.9 | 20.8 ± 4.6 | 0.71 ± 0.07 | 0.75 ± 0.11 | 0.36 ± 0.10 | 36 ± 10 | 0.96 ± 0.06 | 0.76 ± 0.06 | 0.36 ± 0.15 | 36 ± 15 |
| CCOC(=O)CCCCCn1cc(CN(C(=O)OCc2ccc(B3OC(C)(C)C(C)(C)O3)cc2)[c-]2cccc2)nn1.[Fe+2].c1cc[cH-]c1 [compound 1] | substantially weaker | – | – | – | – | – | – | 35 ± 2 | 16.9 µM and 17 µM | – | – | – | – | – | – | – | – | – | – |
